Measurements as given in patent publication US7498321B2, “17β-carbothioate 17α-arylcarbonyloxyloxy androstane derivative as anti-inflammatory agents” (Glaxo Group Limited, priority 2000, dated 2009).
Several values for one entry are separate records, joined by “and”; a condition that tells them apart may be missing. Identical values can stand only once. Values belong to the compound of their own block, whether it stands above or below them.

Experiments:
[1] = Pharmacokinetics after intravenous (IV) and oral dosing in rats; format: in vivo, male Wistar Han rats; details: rat; for plasma clearance (in words): in vivo
[2] = Pharmacokinetics after intra-tracheal dry powder dosing in the pig; format: in vivo; details: for time after dosing up to which quantifiable in plasma: anaesthetised pigs, intra-tracheal 1 mg, LLOQ 10 (Example 1) and 20 pg/mL (fluticasone propionate)
Experimental: Serial blood samples were taken for up to 8 h following dosing.

[3] = tested on: human hepatocytes; experiment: In vitro metabolism in human hepatocytes; format: in vitro ADME; details: for 17-β acid metabolite production: 37° C., 10 μM
[4] = Pharmacokinetics after intravenous administration in the anaesthetised pig; format: in vivo
Description: The clearance of these two glucocortocoids is similar is this experimental pig model.

[5] = tested on: rat hepatocytes; experiment: In vitro metabolism in rat hepatocytes; format: in vitro ADME
[6] = target: T1, glucocorticoid receptor (GR) (Homo sapiens, UniProt P04150); experiment: Functional in vitro assay of glucocorticoid agonist activity (NF-κB/ELAM-sPAP reporter in A549 cells, TNF stimulated); format: cell-based; details: in vitro functional glucocorticoid agonist assays; versus Example 1
T1 construct: A549 cells stably transfected with a reporter gene containing the NF-κB responsive elements from the ELAM gene promoter; endogenous in cells; host or cells: A549 human lung epithelial cells (stably transfected with reporter only)
T1 sequence (P04150 1-777): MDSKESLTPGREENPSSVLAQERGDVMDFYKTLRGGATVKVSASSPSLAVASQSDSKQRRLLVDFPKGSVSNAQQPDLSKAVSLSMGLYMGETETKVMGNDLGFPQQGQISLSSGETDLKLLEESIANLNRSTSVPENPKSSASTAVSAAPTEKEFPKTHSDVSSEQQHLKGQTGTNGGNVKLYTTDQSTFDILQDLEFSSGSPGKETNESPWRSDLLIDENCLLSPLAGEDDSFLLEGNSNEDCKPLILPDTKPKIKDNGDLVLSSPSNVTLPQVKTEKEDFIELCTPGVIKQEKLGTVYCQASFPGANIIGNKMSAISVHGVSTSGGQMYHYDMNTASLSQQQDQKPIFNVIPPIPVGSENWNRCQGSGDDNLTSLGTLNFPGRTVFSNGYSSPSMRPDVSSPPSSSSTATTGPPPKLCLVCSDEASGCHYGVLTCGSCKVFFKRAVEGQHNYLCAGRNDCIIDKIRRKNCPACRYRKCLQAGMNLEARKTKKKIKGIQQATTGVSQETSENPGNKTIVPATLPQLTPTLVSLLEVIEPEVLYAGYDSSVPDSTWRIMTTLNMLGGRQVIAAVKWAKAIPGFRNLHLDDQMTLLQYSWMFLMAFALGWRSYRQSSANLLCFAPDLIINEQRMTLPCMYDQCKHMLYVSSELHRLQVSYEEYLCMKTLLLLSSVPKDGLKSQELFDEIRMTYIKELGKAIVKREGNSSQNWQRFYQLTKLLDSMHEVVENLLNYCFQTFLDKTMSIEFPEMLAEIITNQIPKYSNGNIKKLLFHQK
Experimental: Pharmacological activity was assessed in a functional in vitro assay of glucocorticoid agonist activity which is generally predictive of anti-inflammatory or anti-allergic activity in vivo.
The functional assay was based on that described by K. P. Ray et al., Biochem J. (1997), 328, 707-715. A549 cells stably transfected with a reporter gene containing the NF-κB responsive elements from the ELAM gene promoter coupled to sPAP (secreted alkaline phosphatase) were treated with test compounds at appropriate doses for 1 hour at 37° C. The cells were then stimulated with tumour necrosis factor (TNF, 10 ng/ml) for 16 hours, at which time the amount of alkaline phosphatase produced is measured by a standard colourimetric assay. Dose response curves were constructed from which EC50 values were estimated.

Compound: C[C@@H]1CC2C3C[C@H](F)C4=CC(=O)C=C[C@]4(C)[C@@]3(F)[C@@H](O)C[C@]2(C)[C@@]1(OC(=O)c1ccco1)C(=O)SCF (stereo partly drawn) [Example 1, 6α, 9α-Difluoro-17α-[(2-furanylcarbonyl)oxy]-11β-hydroxy-16α-methyl-3-oxo-androsta-1,4-diene-17β-carbothioic acid S-fluoromethyl ester]
plasma clearance (in words) [1]: approaching hepatic blood flow | oral bioavailability ([1]; oral 0.1 mg/kg vs IV 0.1 mg/kg, 0.1 mg/kg): < 1% and 0.9% | AUC (0-inf) ([2]; Pig 1, intra-tracheal 1 mg dry powder blend in lactose): 254 pg·h/mL | AUC (0-inf) ([2]; Pig 2, intra-tracheal 1 mg dry powder blend in lactose): 221 pg·h/mL | time after dosing up to which quantifiable in plasma [2]: up to 2 hours | manner of metabolism (in words) ([3]; human hepatocytes): metabolised in an identical manner to fluticasone propionate | 17-β acid metabolite production ([3]; subject 1, 0.2 million cells/mL): 48.9 pmol/h | 17-β acid metabolite production ([3]; subject 1, 0.7 million cells/mL): 73.3 pmol/h | 17-β acid metabolite production ([3]; subject 2, 0.2 million cells/mL): 118 pmol/h | 17-β acid metabolite production ([3]; subject 2, 0.7 million cells/mL): 903 pmol/h | 17-β acid metabolite production ([3]; subject 3, 0.7 million cells/mL): 580 pmol/h | clearance compared with fluticasone propionate (in words) ([4]; IV 0.1 mg/kg): similar | pharmacokinetic parameters compared with fluticasone propionate (in words) ([4]; IV mixture of the two compounds at 0.1 mg/kg): the same | manner of metabolism (in words) [5]: metabolised in an identical manner to fluticasone propionate

Compound: CC1CC2C3CC(F)C4=CC(=O)C=CC4(C)C3(F)C(O)CC2(C)C1(OC(=O)c1ccsc1)C(=O)SCF (stereo not drawn) [Example 4, 6α,9α-Difluoro-11β-hydroxy-16α-methyl-3-oxo-17α-[(3-thienylcarbonyl)oxy]-androsta-1,4-diene-17β-carbothioic acid S-fluoromethyl ester]
plasma clearance (in words) [1]: approaching hepatic blood flow

Compound: Cc1ccoc1C(=O)OC1(C(=O)SCF)C(C)CC2C3CC(F)C4=CC(=O)C=CC4(C)C3(F)C(O)CC21C (stereo not drawn) [Example 19, 6α,9α-Difluoro-11β-hydroxy-16α-methyl-17α-[(3-methylfuran-2-carbonyl)oxy]-3-oxo-androsta-1,4-diene-17β-carbothioic acid S-fluoromethyl ester]
plasma clearance (in words) [1]: approaching hepatic blood flow

Compound: Cc1cc(C(=O)OC2(C(=O)SCF)C(C)CC3C4CC(F)C5=CC(=O)C=CC5(C)C4(F)C(O)CC32C)no1 (stereo not drawn) [Example 24, 6α,9α-Difluoro-11β-hydroxy-16α-methyl-17α-[(5-methylisoxazole-3-carbonyl)oxy]-3-oxo-androsta-1,4-diene-17β-carbothioic acid S-fluoromethyl ester]
plasma clearance (in words) [1]: approaching hepatic blood flow

Compound: Cc1cc(C(=O)OC2(C(=O)SCF)C(C)CC3C4CC(F)C5=CC(=O)C=CC5(C)C4(F)C(O)CC32C)on1 (stereo not drawn) [Example 25, 6α,9α-Difluoro-11β-hydroxy-16α-methyl-17α-[(3-methylisoxazole-5-carbonyl)oxy]-3-oxo-androsta-1,4-diene-17β-carbothioic acid S-fluoromethyl ester]
plasma clearance (in words) [1]: approaching hepatic blood flow

Compound: CC1CC2C3CC(F)C4=CC(=O)C=CC4(C)C3(F)C(O)CC2(C)C1(OC(=O)c1ccon1)C(=O)SCF (stereo not drawn) [Example 28, 6α,9α-Difluoro-11β-hydroxy-17α-[(isoxazole-3-carbonyl)oxy]-16α-methyl-3-oxo-androsta-1,4-diene-17β-carbothioic acid S-fluoromethyl ester]
plasma clearance (in words) [1]: approaching hepatic blood flow

time after dosing up to which quantifiable in plasma [2]: up to 8 hours
Compound: CCC(=O)O[C@]1(C(=O)SCF)[C@H](C)C[C@H]2[C@@H]3C[C@H](F)C4=CC(=O)C=C[C@]4(C)[C@@]3(F)[C@@H](O)C[C@@]21C [Fluticasone propionate, 6α, 9α-Difluoro-17α-(1-oxopropoxy)-11β-hydroxy-16α-methyl-3-oxo-androsta-1,4-diene-17β-carbothioic acid S-fluoromethyl ester, reference compound]

Compound: C[C@@H]1C[C@H]2[C@@H]3C[C@H](F)C4=CC(=O)C=C[C@]4(C)[C@@]3(F)[C@@H](O)C[C@]2(C)[C@@]1(OC(=O)c1ccco1)C(=O)O [Metabolite (X)]
fold less active than the parent compound [6]: > 1000 fold
